Experiment [1] has as its system poly A-poly U (RNA, polymer) A/U. In words: UV melting at 260 nm. The settings on record: Na+ (50 mM sodium cacodylate); pH 7.4; r = [ligand]/[polynucleotide] = 0.05; caption says ctDNA, text b32 says poly A-poly U; per base.
Experiment [2] has the same test system. In words: fluorescent indicator displacement (DAPI). The settings on record: Na+ (50 mM sodium cacodylate); pH 7.4; DAPI displaced; polynucleotide 1-2 × 10^-5 M.
Experiment [3] has the same test system. In words: fluorescent indicator displacement (EB). The settings on record: Na+ (50 mM sodium cacodylate); pH 7.4; ethidium bromide displaced; polynucleotide 3-4 × 10^-5 M.

Turning to `NCCN(CCN)CCCNCCN1CCNCc2cccc(n2)CNCC1`, the shift in melting temperature (ΔTm) in experiment [1] turned out to be 21.3 °C. For the same compound, the IC50 in experiment [2] is 0.85 [ligand]/[polynucleotide] ratio (dimensionless); in experiment [3], 0.63 [ligand]/[polynucleotide] ratio (dimensionless).

Regarding `c1cc2nc(c1)CNCCN(CCCNCCN1CCNCc3cccc(n3)CNCC1)CCNC2`, in experiment [1], the ΔTm was found to be 17.1 °C. Further, the IC50 was 0.45 [ligand]/[polynucleotide] ratio (dimensionless) in experiment [2] and 0.86 [ligand]/[polynucleotide] ratio (dimensionless) in experiment [3].

For orientation: ΔTm means the change in melting temperature against a reference sample.

Values taken from article PMC8272215 (2021).
